This assay has as its target ASK1 (Homo sapiens (Human), UniProt Q99683). Briefly: ASK1 kinase inhibition, HTRF KinEASE Assay System (TR-FRET). As to conditions: 5 nM ASK1 kinase, 1 uM STK3 peptide substrate, 100 uM ATP, 3 hours. The class given is biochemical. The protocol:
The ability (IC50) of compounds to inhibit ASK1 kinase activity was determined by HTRF® KinEASE™ Assay System.
ASK1 was purchased from Thermofisher (Catalogue # PV401.1), ATP was purchased from Sigma (Catalogue # A7699), HTRF® KinEASE™ Assay System was obtained from Cisbio (Bedford, Mass). ½ Area plate was purchased from Perkin Elmer (Catalogue # #6005560). HTRF® KinEASE™-STK is a generic method for measuring serine/threonine kinase activities using a time-resolved fluorescence resonance energy transfer (TR-FRET) immunoassay. The IC50 value for each compound was determined in the presence of compound (various concentration from 0 to 10 μM) and a fixed amount of ATP and peptide substrates. The test compound, luM STK3 peptide substrate, and 5 nM of ASK1 kinase are incubated with kinase reaction buffer containing 50 mM HEPES pH 7.5, 0.01% BRIJ-35, 10 mM MgCl2, and 1 mM EGTA for 30 minutes. 100 uM ATP is added to start kinase reaction and incubated for 3 hours. The STK3-antibody labeled with Eu^3+-Cryptate and 125 nM streptavidin-XL665 are mixed in a single addition with stop reagents provided by the Cisbio kit used to stop the kinase reaction. Fluorescence is detected using an Envision Multilabeled 2014 reader from PerkinElmer. The Fluorescence is measured at 615 nm (Cryptate) and 665 nm (XL665) and a ratio of 665 nm/615 nm is calculated for each well. The resulting TR-FRET is proportional to the phosphorylation level. Staurosporine was used as the positive control. IC50 was determined by XLfit 5.3.
By using above method, the inhibition of ASK1 was tested for the compound of formula (I). IC50 ranges are as follows: A<1 nM; 1 nM<B<10 nM; 10 nM<C<100 nM; 100 nM<D

Data on 22 molecules can be found in patent publication US10683279B2, “Apoptosis signal-regulating kinase 1 inhibitors and methods of use thereof” (Enanta Pharmaceuticals, Inc., priority 2017, dated 2020).

Chain of ASK1 (Q99683 whole entry): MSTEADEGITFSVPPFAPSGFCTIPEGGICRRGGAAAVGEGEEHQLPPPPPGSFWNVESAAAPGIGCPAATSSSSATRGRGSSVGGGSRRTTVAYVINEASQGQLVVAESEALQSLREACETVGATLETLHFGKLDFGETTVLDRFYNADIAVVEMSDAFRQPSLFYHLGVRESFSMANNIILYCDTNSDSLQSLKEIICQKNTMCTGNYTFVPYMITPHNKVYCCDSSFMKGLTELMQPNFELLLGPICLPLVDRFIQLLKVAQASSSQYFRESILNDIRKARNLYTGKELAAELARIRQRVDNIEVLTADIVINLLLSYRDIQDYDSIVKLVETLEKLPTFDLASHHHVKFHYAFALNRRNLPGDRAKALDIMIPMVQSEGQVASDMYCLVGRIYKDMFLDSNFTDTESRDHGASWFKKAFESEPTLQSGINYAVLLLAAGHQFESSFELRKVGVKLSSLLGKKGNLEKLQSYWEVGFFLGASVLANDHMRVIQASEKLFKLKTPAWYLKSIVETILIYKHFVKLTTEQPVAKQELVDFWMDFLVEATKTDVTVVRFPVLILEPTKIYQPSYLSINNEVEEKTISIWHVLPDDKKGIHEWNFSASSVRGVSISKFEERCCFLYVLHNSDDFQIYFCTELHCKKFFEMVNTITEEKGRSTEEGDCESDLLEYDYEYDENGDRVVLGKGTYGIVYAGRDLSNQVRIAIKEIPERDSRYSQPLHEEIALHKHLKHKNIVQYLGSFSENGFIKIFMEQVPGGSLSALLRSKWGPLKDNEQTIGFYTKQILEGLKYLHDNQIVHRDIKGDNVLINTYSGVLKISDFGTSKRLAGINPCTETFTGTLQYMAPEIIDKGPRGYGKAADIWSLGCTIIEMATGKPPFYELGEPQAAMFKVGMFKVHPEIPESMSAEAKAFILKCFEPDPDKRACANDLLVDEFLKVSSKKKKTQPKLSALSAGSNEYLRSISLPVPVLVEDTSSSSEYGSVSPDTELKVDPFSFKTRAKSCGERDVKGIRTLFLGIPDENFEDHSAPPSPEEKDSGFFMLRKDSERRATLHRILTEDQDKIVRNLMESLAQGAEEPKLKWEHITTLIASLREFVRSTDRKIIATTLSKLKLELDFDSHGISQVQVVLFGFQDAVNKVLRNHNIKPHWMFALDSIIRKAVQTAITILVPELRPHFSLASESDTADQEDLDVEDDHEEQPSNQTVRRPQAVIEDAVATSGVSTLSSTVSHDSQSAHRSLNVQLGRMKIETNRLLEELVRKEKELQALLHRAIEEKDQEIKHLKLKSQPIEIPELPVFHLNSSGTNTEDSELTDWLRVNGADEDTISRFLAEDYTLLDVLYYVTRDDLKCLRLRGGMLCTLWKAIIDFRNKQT

Turning to `CC(C)n1nnnc1-c1nc(NC(=O)c2cc(-n3cnc(C4CC4)c3)c(N3CCOCC3)cn2)cs1` [Example 45a], the IC50 lay within 1 to 10 nM.
Next, `Cc1cc(F)c(C(=O)Nc2cccc(-c3nnnn3[C@@H]3CCOC3)n2)cc1-n1cnc(C2CC2)c1` [Example 17a]: 1 to 10 nM; `Cc1cnc(C(=O)Nc2cccc(-c3nnnn3C(C)C)n2)cc1-n1cnc(C(F)(F)F)c1` [Example 50a]: 1 to 10 nM.
Take `Cc1cc(F)c(C(=O)Nc2ccnc(-c3nnnn3C(C)C)n2)cc1-n1cnc(C2CC2)c1` [Example 34a]: the IC50 lay within 10 to 100 nM.
In the case of `COc1cc(C)c(-n2cnc(C3CC3)c2)cc1C(=O)Nc1cccc(-c2nnnn2[C@H](C)CO)n1` [Example 61a] it was 1 to 10 nM.
In the case of `CC(C)n1nnnc1-c1nc(NC(=O)c2cc(-n3cnc(C4CC4)c3)c(N3CCCC3)cn2)cs1` [Example 42a] it was 1 to 10 nM.
In the case of `Cc1cc(F)c(C(=O)Nc2cccc(-c3nnnn3[C@H](C)CO)n2)cc1-n1cnc(C(F)(F)F)c1` [Example 28a] it was 1 to 10 nM; in that of `Cc1cc(F)c(C(=O)Nc2cccc(-c3nnnn3C(CO)CO)n2)cc1-n1cnc(C2CC2)c1` [Example 26a], under 1 nM.
Turning to `Cc1cc(F)c(C(=O)Nc2cccc(-c3nnnn3C3(C)CC3)n2)cc1-n1cnc(C2CC2)c1` [Example 3a, 5-(4-cyclopropyl-1H-imidazol-1-yl)-2-fluoro-N-(6-(1-(1-methylcyclo-propyl)-1H-tetrazol-5-yl)pyridin-2-yl)-4-methylbenzamide], the IC50 was 1 to 10 nM.
Take `Cc1cc(F)c(C(=O)Nc2cccc(-c3nnnn3C(C)C)n2)cc1-n1cnc(C(F)(F)F)c1` [Example 27a]: the half-inhibitory concentration (IC50) lay in the range of 10 to 100 nM.
Next, `CC(C)n1nnnc1-c1cccc(NC(=O)c2cc(-n3cnc(C4CC4)c3)c(C(F)F)cc2F)n1` [Example 31a, 5-(4-cyclopropyl-1H-imidazol-1-yl)-4-(difluoromethyl)-2-fluoro-N-(6-(1-isopropyl-1H-tetrazol-5-yl)pyridin-2-yl)benzamide]: 1 to 10 nM.
Next, `Cc1cc(F)c(C(=O)Nc2cccc(-n3nnnc3C(C)C)n2)cc1-n1cnc(C(C)(C)C)c1` [Example 6b]: 1 to 10 nM; `Cc1cnc(C(=O)Nc2cccc(-c3nnnn3[C@H](C)CO)n2)cc1-n1cnc(C(C)(C)C)c1` [Example 53a]: 1 to 10 nM.
Next, `CC(C)n1nnnc1-c1cccc(NC(=O)c2cc(-n3cnc(C4CC4)c3)c(F)cn2)n1` [Example 39a]: 1 to 10 nM; `CC(=O)OC[C@@H](C)n1nnnc1-c1cccc(NC(=O)c2cc(-n3cnc(C4CC4)c3)c(C)cc2F)n1` [Example 6a, (R)-2-(5-(6-(5-(4-cyclopropyl-1H-imidazol-1-yl)-2-fluoro-4-methyl-benzamido)pyridin-2-yl)-1H-tetrazol-1-yl)propyl acetate]: over 100 nM.
Molecule `Cc1cc(F)c(C(=O)Nc2cccc(-c3cnnn3C(C)C)n2)cc1-n1cnc(C2CC2)c1` [Example 4c, 5-(4-cyclopropyl-1H-imidazol-1-yl)-2-fluoro-N-(6-(1-isopropyl-1H-1,2,3-triazol-5-yl)pyridin-2-yl)-4-methylbenzamide] returned an IC50 of 10 to 100 nM.
In turn, `Cc1cnc(C(=O)Nc2cccc(-n3nnnc3C(C)C)n2)cc1-n1cnc(C2CC2)c1` [Example 3b] returned an IC50 of 1 to 10 nM.
Next, `Cc1cc(F)c(C(=O)Nc2cccc(-c3nnnn3[C@H]3CCOC3)n2)cc1-n1cnc(C2CC2)c1` [Example 18a]: 1 to 10 nM; `CC(C)n1nnnc1-c1cccc(NC(=O)c2cc(-n3cnc(C4CC4)c3)c(C(F)(F)F)cn2)n1` [Example 57a]: 1 to 10 nM.
Next, `Cc1cc(F)c(C(=O)Nc2cccc(-c3nnnn3[C@H](C)CCO)n2)cc1-n1cnc(C2CC2)c1` [Example 22a]: 1 to 10 nM.
In the case of `Cc1cnc(C(=O)Nc2cccc(-c3nnnn3C(C)C)n2)cc1-n1cnc(C2CC2)c1` [Example 48a] it was 10 to 100 nM; in that of `Cc1cc(F)c(C(=O)Nc2cccc(-c3nnnn3[C@H](C)COC(=O)c3ccccc3)n2)cc1-n1cnc(C2CC2)c1` [Example 25a], over 1000 nM.
